Source: ChEMBL document CHEMBL2016539 (Bioorg Med Chem Lett, 2012)
pIC50: −log10 of the molar value.

Experiments:
[1] = biological target: Inosine-5'-monophosphate dehydrogenase 2 (Homo sapiens, UniProt P12268); assay: Inhibition of IMPDH2 using inosine 5'-monophosphate as substrate by spectrophotometry
[2] = Immunosuppressive activity in C57BL/6 mouse T lymphocytes assessed as inhibition of cell proliferation after 72 hrs by MTT assay; format: functional, cell-based; conditions: C57BL/6, T-cell

SMILES | pIC50 [1] | pIC50 [2]
COc1c(C)c2c(c(O)c1C/C=C(\C)[C@@H](O)CC(=O)O)C(=O)OC2 | 5.75 | 5.96
COc1c(C)c2c(c(O)c1C/C=C(\C)CCC(=O)O)C(=O)OC2 [MYCOPHENOLIC ACID] |  | 6.49

Now from value to compound, other results behind:

pIC50 [1] | SMILES | pIC50 [2]
4.54 | COc1c(C)c2c(c(OC)c1C/C=C(\C)[C@@H](O)CC(=O)O)C(=O)OC2 [PENICACID A] | 5.61
5.19 | COc1c(C)c2c(c(O)c1C/C=C(\C)[C@H](CC(=O)O)O[C@H]1O[C@H](CO)[C@@H](O)[C@H](O)[C@H]1O)C(=O)OC2 [PENICACID B] | < 4.70
4.14 | COc1c(C)c2c(c(O)c1CC(O)C(C)(O)C(O)CC(=O)O)C(=O)OC2 (centres undefined) [PENICACID C] | < 4.52
